Laboratory results as given in patent publication US4137314A, “7-Dithioacetamido cephalosporins and pharmaceutical compositions and methods employing them having antibacterial activity” (SmithKline Corporation, priority 1977, dated 1979).
≈ marks a conversion by molar mass, not a printed value. Where two headings read alike, the source gives them in different places.

Experiments:
Experiment in all cases: MIC, standard agar inclusion method
Assay type in all cases: cell-based
Entero. aerogenes 13048 = conditions: Klebsiella aerogenes
Proteus morgani 179 = system: Proteus morgani 179
S. aureus SK23390 = conditions: Staphylococcus aureus
Strep. faecalis HH34358 = conditions: Enterococcus faecalis
E. coli HH33779 = conditions: Escherichia coli
Kleb. pneumo. SK1200 = system: Kleb. pneumo. SK1200
[1] = system: Shegella paradysenteriae HH117
Entero. cloacae HH31254 = conditions: Enterobacter cloacae
E. coli SK12140 = conditions: Escherichia coli
Pseudo aeruginosa HH63 = system: Pseudo aeruginosa HH63
Kleb. pneumo. SK4200 = system: Kleb. pneumo. SK4200
Serratia marc. ATCC13880 = system: Serratia marc. ATCC13880
[2] = system: Salmonella paratuphi ATCC12176
S. aureus Villaluz = conditions: Staphylococcus aureus
S. aureus HH127 = conditions: Staphylococcus aureus
[3] = Entero. aerogenes 13048, agar inclusion, read-out: MIC
[4] = Entero. cloacae HH31254, agar inclusion, read-out: MIC

## CSSCC(=O)NC1C(=O)N2C(C(=O)O)=C(CSc3nnnn3C)CSC12 (stereo not drawn) [A, 7-methyldithioacetamido-3-(1-methyltetrazol-5-yl-thiomethyl)-3-cephem-4-carboxylic acid]
Entero. aerogenes 13048; [3]
  MIC: 3.1 µg/mL (≈ 6.91 µM)
Proteus morgani 179
  MIC: > 200 µg/mL
S. aureus SK23390
  MIC: 0.4 µg/mL (≈ 0.892 µM)
Strep. faecalis HH34358
  MIC: 12.5 µg/mL (≈ 27.9 µM)
E. coli HH33779
  MIC: 6.3 µg/mL (≈ 14 µM)
Kleb. pneumo. SK1200
  MIC: 0.8 µg/mL (≈ 1.78 µM)
[1]
  MIC: 0.8 µg/mL (≈ 1.78 µM)
Entero. cloacae HH31254; [4]
  MIC: 1.6 µg/mL (≈ 3.57 µM)
E. coli SK12140
  MIC: 3.1 µg/mL (≈ 6.91 µM)
Pseudo aeruginosa HH63
  MIC: > 200 µg/mL
Kleb. pneumo. SK4200
  MIC: 3.1 µg/mL (≈ 6.91 µM)
Serratia marc. ATCC13880
  MIC: > 200 µg/mL
[2]
  MIC: 0.8 µg/mL (≈ 1.78 µM)
S. aureus Villaluz
  MIC: 6.3 µg/mL (≈ 14 µM)
S. aureus HH127
  MIC: 0.4 µg/mL (≈ 0.892 µM)

## Cn1nnnc1SCC1=C(C(=O)O)N2C(=O)C(NC(=O)CSSC(Cl)(Cl)Cl)C2SC1 (stereo not drawn) [B, 7-(trichloromethyldithioacetamido)-3-(1-methyltetrazol-5-ylthiomethyl)-3-cephem-4-carboxylic acid]
Entero. aerogenes 13048; [3]
  MIC: 100 µg/mL (≈ 181 µM)
Proteus morgani 179
  MIC: > 200 µg/mL
S. aureus SK23390
  MIC: 3.1 µg/mL (≈ 5.62 µM)
Strep. faecalis HH34358
  MIC: 50 µg/mL (≈ 90.6 µM)
E. coli HH33779
  MIC: 100 µg/mL (≈ 181 µM)
Kleb. pneumo. SK1200
  MIC: 6.3 µg/mL (≈ 11.4 µM)
[1]
  MIC: 12.5 µg/mL (≈ 22.6 µM)
Entero. cloacae HH31254; HH31254
  MIC: 12.5 µg/mL (≈ 22.6 µM)
E. coli SK12140
  MIC: 12.5 µg/mL (≈ 22.6 µM)
Pseudo aeruginosa HH63
  MIC: > 200 µg/mL
Serratia marc. ATCC13880
  MIC: > 200 µg/mL
[2]
  MIC: 6.3 µg/mL (≈ 11.4 µM)
S. aureus Villaluz
  MIC: 50 µg/mL (≈ 90.6 µM)
S. aureus HH127
  MIC: 3.1 µg/mL (≈ 5.62 µM)

## Cn1nnnc1SCC1=C(C(=O)O)N2C(=O)C(NC(=O)CSSC(F)(F)F)C2SC1 (stereo not drawn) [C]
Entero. aerogenes 13048; [3]
  MIC: 100 µg/mL (≈ 199 µM)
Proteus morgani 179; Proteus morgani 179, agar inclusion, read-out: MIC
  MIC: > 100 µg/mL
S. aureus SK23390
  MIC: 3.1 µg/mL (≈ 6.17 µM)
Strep. faecalis HH34358
  MIC: 50 µg/mL (≈ 99.5 µM)
E. coli HH33779
  MIC: 25 µg/mL (≈ 49.7 µM)
Kleb. pneumo. SK1200
  MIC: 3.1 µg/mL (≈ 6.17 µM)
[1]
  MIC: 3.1 µg/mL (≈ 6.17 µM)
Entero. cloacae HH31254; [4]
  MIC: 12.5 µg/mL (≈ 24.9 µM)
E. coli SK12140
  MIC: 12.5 µg/mL (≈ 24.9 µM)
Pseudo aeruginosa HH63
  MIC: > 100 µg/mL
Kleb. pneumo. SK4200
  MIC: 6.3 µg/mL (≈ 12.5 µM)
Serratia marc. ATCC13880
  MIC: > 100 µg/mL
[2]
  MIC: 6.3 µg/mL (≈ 12.5 µM)
S. aureus Villaluz
  MIC: 6.3 µg/mL (≈ 12.5 µM)
S. aureus HH127
  MIC: 3.1 µg/mL (≈ 6.17 µM)

## Cc1nnc(SCC2=C(C(=O)O)N3C(=O)[C@@H](NC(=O)Cn4cnnn4)[C@H]3SC2)s1 [Cefazolin, reference compound]
Entero. aerogenes 13048; 13048
  MIC: 1.6 µg/mL (≈ 3.52 µM)
Proteus morgani 179
  MIC: > 200 µg/mL
S. aureus SK23390
  MIC: 0.4 µg/mL (≈ 0.88 µM)
Strep. faecalis HH34358
  MIC: 6.3 µg/mL (≈ 13.9 µM)
E. coli HH33779
  MIC: 3.1 µg/mL (≈ 6.82 µM)
[1]
  MIC: 0.8 µg/mL (≈ 1.76 µM)
E. coli SK12140
  MIC: 1.6 µg/mL (≈ 3.52 µM)
Pseudo aeruginosa HH63
  MIC: > 200 µg/mL
Kleb. pneumo. SK4200
  MIC: 3.1 µg/mL (≈ 6.82 µM)
Serratia marc. ATCC13880
  MIC: > 200 µg/mL
[2]
  MIC: 1.6 µg/mL (≈ 3.52 µM)
S. aureus Villaluz
  MIC: 25 µg/mL (≈ 55 µM)
S. aureus HH127
  MIC: 0.4 µg/mL (≈ 0.88 µM)

## CSSCC(=O)NC1C(=O)N2C(C(=O)O)=C(COC(C)=O)CSC12 (stereo not drawn) [D, 7-(methyldithioacetamido)-cephalosporanic acid]
Entero. aerogenes 13048; [3]
  MIC: 25 µg/mL (≈ 63.7 µM)
Proteus morgani 179
  MIC: > 200 µg/mL
S. aureus SK23390
  MIC: 0.2 µg/mL (≈ 0.51 µM)
Strep. faecalis HH34358
  MIC: 12.5 µg/mL (≈ 31.8 µM)
E. coli HH33779
  MIC: 12.5 µg/mL (≈ 31.8 µM)
Kleb. pneumo. SK1200
  MIC: 3.1 µg/mL (≈ 7.9 µM)
[1]
  MIC: 1.6 µg/mL (≈ 4.08 µM)
Entero. cloacae HH31254; [4]
  MIC: 25 µg/mL (≈ 63.7 µM)
E. coli SK12140
  MIC: 6.3 µg/mL (≈ 16.1 µM)
Pseudo aeruginosa HH63
  MIC: > 200 µg/mL
Kleb. pneumo. SK4200
  MIC: 3.1 µg/mL (≈ 7.9 µM)
Serratia marc. ATCC13880
  MIC: > 200 µg/mL
[2]
  MIC: 6.3 µg/mL (≈ 16.1 µM)
S. aureus Villaluz
  MIC: 3.1 µg/mL (≈ 7.9 µM)
S. aureus HH127
  MIC: 0.2 µg/mL (≈ 0.51 µM)
